Assay [1] relates to C57/BL6 WT mice subjected to TAC pressure overload. The assay can be described thus: Body weight and heart weight in mice subjected to transverse aortic constriction (TAC). The assay is classed as in vivo, mouse. As to conditions: TAC 3 weeks, oral co-treatment 1 mg/g food, mean ± sem. An excerpt: Male NOS3 null mice (NOS3^−/−) and C57/BL6 WT controls (8-11 weeks, Jackson Labs, Bar Harbor, Me., USA) were used. Pressure overload was produced by transverse aorta constriction (TAC). Briefly, The aortic arch was isolated by entering the extrapleural space between the second and third rib, and afterwards the transverse aorta was isolated between the right and left carotid arteries. A 7-0 prolene suture ligature was tied around the transverse aorta against a 27-gauge needle to produce a 65-70% constriction after the removal of the needle. After closing the chest, animals were extubated, and a subcutaneous injection of morphine sulphate 0.2 mg, was administered before they returned to their cages. Animal's ventilatory and circulatory status was checked every 30 minutes during the first 2 hours. Sham-operated mice underwent the same operation except for aortic constriction. […] Animals were randomized to receive placebo or BH4 (120 mg/kg/d) for the next 5 weeks. At the end of the study, i.e. at 9 weeks, animal were sacrificed to receive tissue or underwent in vivo PV-loop analysis. […] Control mice were subject to sham operations, and animals were studied 3-9 weeks following surgery. […]

Assay [2] concerns the target T1, NOS3 (Mus musculus, UniProt P70313).
T1 construct: from tissue; host or cells: mouse heart (myocardium) after sham or TAC surgery
T1 sequence (P70313 2-1202 limits assumed): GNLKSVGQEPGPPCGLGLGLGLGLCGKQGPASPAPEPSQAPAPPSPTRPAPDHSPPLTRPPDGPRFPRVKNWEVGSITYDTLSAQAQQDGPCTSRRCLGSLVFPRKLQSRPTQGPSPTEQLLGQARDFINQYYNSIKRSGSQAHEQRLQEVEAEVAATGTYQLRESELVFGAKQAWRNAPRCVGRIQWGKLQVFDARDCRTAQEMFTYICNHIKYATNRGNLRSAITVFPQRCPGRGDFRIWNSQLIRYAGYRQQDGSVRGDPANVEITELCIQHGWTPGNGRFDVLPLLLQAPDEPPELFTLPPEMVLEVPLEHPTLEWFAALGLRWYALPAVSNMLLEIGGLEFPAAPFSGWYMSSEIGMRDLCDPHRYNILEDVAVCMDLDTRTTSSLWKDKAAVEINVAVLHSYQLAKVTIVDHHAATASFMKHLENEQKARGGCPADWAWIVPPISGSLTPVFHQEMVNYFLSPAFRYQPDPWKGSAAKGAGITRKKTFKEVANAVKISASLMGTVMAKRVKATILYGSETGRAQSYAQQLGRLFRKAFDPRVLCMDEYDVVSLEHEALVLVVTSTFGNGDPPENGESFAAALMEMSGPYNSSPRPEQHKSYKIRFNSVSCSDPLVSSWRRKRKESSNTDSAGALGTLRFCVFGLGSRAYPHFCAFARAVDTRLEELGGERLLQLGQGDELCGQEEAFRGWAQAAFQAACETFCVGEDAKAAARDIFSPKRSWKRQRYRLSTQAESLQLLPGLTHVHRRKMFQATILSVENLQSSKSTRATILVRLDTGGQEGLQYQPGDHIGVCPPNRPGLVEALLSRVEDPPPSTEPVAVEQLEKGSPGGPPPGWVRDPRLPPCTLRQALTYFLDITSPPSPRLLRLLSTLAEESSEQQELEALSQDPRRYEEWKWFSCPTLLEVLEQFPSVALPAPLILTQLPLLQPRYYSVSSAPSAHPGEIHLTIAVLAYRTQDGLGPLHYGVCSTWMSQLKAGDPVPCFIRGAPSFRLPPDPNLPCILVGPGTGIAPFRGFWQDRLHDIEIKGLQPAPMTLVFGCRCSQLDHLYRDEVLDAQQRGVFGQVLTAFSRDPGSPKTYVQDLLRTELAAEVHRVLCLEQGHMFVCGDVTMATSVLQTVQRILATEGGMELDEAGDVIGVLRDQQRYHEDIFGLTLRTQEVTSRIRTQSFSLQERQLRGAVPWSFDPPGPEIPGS
Description: NOS3 dimer/monomer by low-temperature SDS-PAGE in TAC hearts. It is filed as in vivo. The note with it: WT mice, TAC 3 weeks, oral co-treatment. As to the method: SDS-resistant NOS3 dimers and monomers were assayed using low-temperature SDS PAGE under reducing or non-reducing conditions, as described previously^7. NOS3 was immunoprecipitated as described^16 and the resulting samples added to fivefold Laemmli buffer (0.32 mol/l Tris-HCl, pH 6.8, 0.5 mol/l glycine, 10% SDS, 50% glycerol, and 0.03% bromophenol blue) in non-reducing gel (no 2-mercaptoethanol) to identify dimer dissociation due to reduced disulfide bridges. To provide fully denatured control lanes, samples were boiled for 15 minutes prior to loading. Electrophoresis was performed using Tris glycine 6% gels (Invitrogen Corp.), and gels and buffers maintained in an ice bath at 4° C. and stained (SimplyBlue, Invitrogen Corp.). Calcium dependent and independent NOS activity was determined from myocardial homogenates by [3H] L-arginine to [3H] citrulline conversion (Sigma-Aldrich) as described^16. An alternative approach involved more direct Western blot analysis without requiring initial NOS IP. Cold SDS-Page Western blot analysis was performed using a self-made […] SDS-Tris gel. After overnight running on ice, the gel was transferred for 3 h to nitrocellulose membrane. […] Bound antibodies were detected with horseradish peroxidase-conjugated anti-mouse IgG and visualize with an enhanced chemiluminescence detection system.

For the compound `Nc1nc2c(c(=O)[nH]1)NC(C(O)C(O)CO)CN2` (centres unmarked) [H4N, tetrahydroneopterin], in assay [1], the “Heart Weight (HW)” value amounted to 231.3 ± 10.7 mg. The NOS3 dimerization entry in assay [2] is recorded as “unaltered”.

The values above are taken from patent US20100004248A1, “Use of a Nitric Oxide Synthase Modulator for the Treatment of Cardiac Indications” (priority 2005, published 2010).
